# In ChEMBL document CHEMBL1141966, “Novel triazole based inhibitors of Ras farnesyl transferase” (Bioorg Med Chem Lett, 2005):
# Target: Protein farnesyltransferase (Homo sapiens, UniProt P49354+P49356)
# Assay: Inhibitory activity against K-Ras farnesyl transferase
# Type: protein-complex assay
row,Compound,IC50 [nM]
1,COc1ccc(CCN(Cc2nncn2Cc2ccc(C#N)cc2)C(=O)c2ccc3ccccc3n2)cc1,75
2,N#Cc1ccc(Cn2cnnc2CN(C(=O)c2ccc3ccccc3n2)c2ccc(Oc3ccccc3)cc2)cc1,44
3,N#Cc1ccc(Cn2nnnc2CN(Cc2ccc(F)cc2F)C(=O)c2ccc3ccccc3n2)cc1,> 1000
4,N#Cc1ccc(Cn2cnnc2CN(CCc2ccc(Br)cc2)C(=O)c2cc3ccccc3s2)cc1,89.3
5,N#Cc1ccc(Cn2cncc2CN(Cc2ccc(F)cc2F)C(=O)c2ccc3ccccc3n2)cc1,187
6,N#Cc1ccc(Cn2cnnc2CN(CCc2ccc(Br)cc2)C(=O)c2cc3ccccc3o2)cc1,53.2
7,N#Cc1ccc(Cn2cnnc2CN(CCc2ccc(Br)cc2)C(=O)c2ccc3ccccc3c2)cc1,28.3
8,N#Cc1ccc(Cn2cnnc2CN(CCc2ccc(Br)cc2)C(=O)c2ccc3ccccc3n2)cc1,26
9,N#Cc1ccc(Cn2cnnc2CN(CCc2ccc(Br)cc2)C(=O)c2ccc3c(c2)OCO3)cc1,61
10,N#Cc1ccc(Cn2cnnc2CN(CCc2ccc(Br)cc2)C(=O)c2ccco2)cc1,99.3
11,COc1cc(C(=O)N(CCc2ccc(Br)cc2)Cc2nncn2Cc2ccc(C#N)cc2)nc2ccccc12,96.5

# The next molecules have a lower IC50 than those just listed; values first:
row,IC50 [nM],Compound
1,19,N#Cc1ccc(Cn2cnnc2CN(CCc2ccc(F)cc2)C(=O)c2ccc3ccccc3n2)cc1
2,5.5,N#Cc1ccc(Cn2cnnc2CN(Cc2ccc(F)cc2F)C(=O)c2ccc3ccccc3n2)nc1
3,5,N#Cc1ccc(Cn2cnnc2CN(Cc2ccc(F)cc2)C(=O)c2ccc3ccccc3n2)cc1
4,3.5,N#Cc1ccc(Cn2cnnc2CN(Cc2ccc(F)cc2F)C(=O)c2ccc3ccccc3n2)cc1
5,2.2,N#Cc1ccc(Cn2cnnc2CN(Cc2ccc(F)cc2F)C(=O)c2ccc3ccccc3c2)cc1
6,1.6,N#Cc1ccc(Cn2cnnc2CN(Cc2ccc([N+](=O)[O-])cc2)C(=O)c2ccc3ccccc3n2)cc1
7,0.9,Cc1nnc(CN(Cc2ccc(F)cc2F)C(=O)c2ccc3ccccc3n2)n1Cc1ccc(C#N)cc1
